Structures are written as SMILES. Several values for one entry are separate records, joined by “and”; a condition that tells them apart may be missing. Identical values can stand only once. Activity calls are given as the source filed them.

These results are taken from ChEMBL document CHEMBL1201862, “PubChem BioAssay data set” (2004).

The target in assay [1] is Cytochrome P450 3A4 (Homo sapiens, UniProt P08684). Particulars: Potency.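 Also: confirmatory qHTS run detecting inhibitors and substrates of CYP3A4.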
Cytochrome P450 3A4, sequence (P08684 whole entry): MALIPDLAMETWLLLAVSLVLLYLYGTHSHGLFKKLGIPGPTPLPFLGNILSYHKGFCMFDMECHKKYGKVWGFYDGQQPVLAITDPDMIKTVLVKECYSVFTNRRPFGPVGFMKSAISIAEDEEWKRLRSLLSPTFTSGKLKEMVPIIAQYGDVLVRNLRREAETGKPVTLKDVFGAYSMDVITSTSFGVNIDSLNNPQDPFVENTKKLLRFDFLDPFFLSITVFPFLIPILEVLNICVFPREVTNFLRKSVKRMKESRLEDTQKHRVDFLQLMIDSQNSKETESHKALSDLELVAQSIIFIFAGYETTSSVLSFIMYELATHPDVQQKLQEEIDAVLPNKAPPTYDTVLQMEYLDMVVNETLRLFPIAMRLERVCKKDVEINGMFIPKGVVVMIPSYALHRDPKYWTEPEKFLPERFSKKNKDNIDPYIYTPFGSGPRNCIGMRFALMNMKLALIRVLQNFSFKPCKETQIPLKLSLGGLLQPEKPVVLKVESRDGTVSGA
The target in assay [2] is T1, Tyrosyl-DNA phosphodiesterase 2 (Homo sapiens, UniProt O95551).
T1 sequence (O95551 whole entry): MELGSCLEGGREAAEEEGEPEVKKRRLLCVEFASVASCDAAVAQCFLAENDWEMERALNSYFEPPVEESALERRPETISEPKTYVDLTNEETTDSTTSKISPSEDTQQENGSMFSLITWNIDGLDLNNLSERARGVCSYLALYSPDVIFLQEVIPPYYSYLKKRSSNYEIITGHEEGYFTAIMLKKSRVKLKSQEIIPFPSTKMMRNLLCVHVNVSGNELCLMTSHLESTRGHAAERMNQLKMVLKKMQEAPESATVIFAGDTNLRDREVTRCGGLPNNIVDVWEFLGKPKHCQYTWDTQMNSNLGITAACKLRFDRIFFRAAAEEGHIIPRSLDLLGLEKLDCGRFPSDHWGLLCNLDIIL
The assay is described as follows: potency against TDP2 phosphodiesterase activity – biochemical, epi absorbance, IC50, dose response (AID 743297).

In assay [3] the target is T2, Adenosylmethionine-8-amino-7-oxononanoate aminotransferase (Mycobacterium tuberculosis, UniProt P9WQ81).
T2 sequence (P9WQ81 whole entry): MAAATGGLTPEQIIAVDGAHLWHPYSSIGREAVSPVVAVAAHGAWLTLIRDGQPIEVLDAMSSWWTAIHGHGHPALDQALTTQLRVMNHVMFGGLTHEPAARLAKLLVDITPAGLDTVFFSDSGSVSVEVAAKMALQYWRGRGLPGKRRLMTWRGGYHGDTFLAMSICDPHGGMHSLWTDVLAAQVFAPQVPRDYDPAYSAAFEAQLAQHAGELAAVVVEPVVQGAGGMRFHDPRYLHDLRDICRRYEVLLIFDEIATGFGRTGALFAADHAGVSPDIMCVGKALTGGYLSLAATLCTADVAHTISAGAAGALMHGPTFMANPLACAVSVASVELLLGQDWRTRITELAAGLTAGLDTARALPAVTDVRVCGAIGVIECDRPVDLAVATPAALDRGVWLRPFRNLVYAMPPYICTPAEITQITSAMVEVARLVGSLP
As to the kind of experiment: Mycobacterium tuberculosis BioA enzyme inhibitor Measured in Biochemical System Using Plate Reader - 2163-02_Inhibitor_Dose_CherryPick_Activity. Format: functional, Mycobacterium tuberculosis UT205.

Assay [4] concerns P388/ADR. The assay is described as follows: cells. The class given is functional. The conditions noted are these: Mus musculus.
In assay [5] the test system is SN12K1. The assay is described as follows: cells. Format: functional. The conditions noted are these: Homo sapiens.
Assay [6] concerns P388. As to the kind of experiment: cells. Format: functional. Particulars: Mus musculus.
A short description of assay [7]: cells. The class given is functional, cell-based.
Assay [8] can be described thus: cells. Format: functional, cell-based. This is another data set of the same source.
Assay [9] addresses T3, Probable nicotinate-nucleotide adenylyltransferase (Staphylococcus aureus (strain N315), UniProt P65502). The class given is functional, Staphylococcus aureus subsp. aureus N315. Particulars: read-out: IC50_Mean.
For assay [10], the system named is Streptococcus. The assay is described as follows: GAS UMAA2166 growth inhibition – luminescence, BacTiterGlo, counter-screen for streptokinase expression inhibitor project, dose response (AID 1915).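 Also: potency for reduction of bacterial viability or growth.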 The class given is functional, organism-based. (In general: Counterscreens check selectivity or assay interference.)
In assay [11] the target is T3, Probable nicotinate-nucleotide adenylyltransferase. Format: functional, Staphylococcus aureus subsp. aureus N315.
The target in assay [12] is T4, Streptokinase A (Streptococcus pyogenes serotype M1, UniProt P10520).
T4 sequence (P10520 whole entry): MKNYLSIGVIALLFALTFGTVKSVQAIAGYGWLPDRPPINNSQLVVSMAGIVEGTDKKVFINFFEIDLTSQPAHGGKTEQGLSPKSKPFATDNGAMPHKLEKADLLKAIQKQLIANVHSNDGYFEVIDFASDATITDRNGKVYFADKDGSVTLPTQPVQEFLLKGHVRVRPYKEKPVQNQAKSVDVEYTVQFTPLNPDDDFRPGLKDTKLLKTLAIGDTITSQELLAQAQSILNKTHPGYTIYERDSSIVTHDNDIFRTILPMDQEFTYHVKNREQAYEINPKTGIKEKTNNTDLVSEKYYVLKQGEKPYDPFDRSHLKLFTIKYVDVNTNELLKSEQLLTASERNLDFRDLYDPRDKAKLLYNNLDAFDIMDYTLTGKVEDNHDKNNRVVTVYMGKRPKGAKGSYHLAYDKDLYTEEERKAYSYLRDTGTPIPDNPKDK
The assay is described as follows: viability-normalized secreted streptokinase activity reduction – plasminogen activation absorbance, OD405, dose response (AID 1914).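 Also: secreted streptokinase activity via plasminogen activation per viability signal from cell pellet.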 Format: functional, Streptococcus pyogenes M1 GAS.

Assay [13] relates to Streptococcus sp. 'group A'. As to the kind of experiment: Streptococcus pyogenes SK(-)GAS viability under kanamycin – luminescence, BacTiterGlo, confirmation, counter-screen for streptokinase expression inhibitor project, dose response (AID 1900). Format: functional, organism-based.
A short description of assay [14]: NIH3T3 cell viability loss – ATP luminescence, mouse fibroblasts, counter-screen, dose response (AID 2010).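 Also: cells exposed to compound for about 90 hours before reading.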 The class given is functional, cell-based.
Assay [15] has as its target T5, Mannose-6-phosphate isomerase (Homo sapiens, UniProt P34949).
T5 sequence (P34949 whole entry): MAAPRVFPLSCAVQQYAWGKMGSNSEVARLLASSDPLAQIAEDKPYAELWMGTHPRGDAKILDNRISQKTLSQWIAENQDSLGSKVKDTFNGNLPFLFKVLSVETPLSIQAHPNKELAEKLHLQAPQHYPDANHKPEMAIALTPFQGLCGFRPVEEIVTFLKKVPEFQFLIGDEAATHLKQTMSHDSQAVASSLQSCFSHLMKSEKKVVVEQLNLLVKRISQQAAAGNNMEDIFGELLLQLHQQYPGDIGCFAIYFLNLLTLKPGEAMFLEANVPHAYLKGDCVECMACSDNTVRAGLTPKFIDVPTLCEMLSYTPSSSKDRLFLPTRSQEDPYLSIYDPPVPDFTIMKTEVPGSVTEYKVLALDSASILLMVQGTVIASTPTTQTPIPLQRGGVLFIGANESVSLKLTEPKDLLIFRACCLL
As to the kind of experiment: MPI enzyme activity inhibition – biochemical, fluorescence intensity, coupled assay, primary screen (AID 1209).

Assay [16] can be described thus: Trypanosoma cruzi growth suppression in host cells – NIH3T3 host cells, beta-gal luminescence, confirmation (AID 2044).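 Also: intracellular parasites grown in NIH/3T3 mouse fibroblasts as host cells; luminescent beta-galactosidase reporter signal from transgenic T. cruzi replicating inside host cells; inhibitors lower the luminescence signal.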 Format: functional, cell-based.
Assay [17] addresses T6, High affinity choline transporter 1 (Homo sapiens, UniProt Q9GZV3).
T6 sequence (Q9GZV3 whole entry): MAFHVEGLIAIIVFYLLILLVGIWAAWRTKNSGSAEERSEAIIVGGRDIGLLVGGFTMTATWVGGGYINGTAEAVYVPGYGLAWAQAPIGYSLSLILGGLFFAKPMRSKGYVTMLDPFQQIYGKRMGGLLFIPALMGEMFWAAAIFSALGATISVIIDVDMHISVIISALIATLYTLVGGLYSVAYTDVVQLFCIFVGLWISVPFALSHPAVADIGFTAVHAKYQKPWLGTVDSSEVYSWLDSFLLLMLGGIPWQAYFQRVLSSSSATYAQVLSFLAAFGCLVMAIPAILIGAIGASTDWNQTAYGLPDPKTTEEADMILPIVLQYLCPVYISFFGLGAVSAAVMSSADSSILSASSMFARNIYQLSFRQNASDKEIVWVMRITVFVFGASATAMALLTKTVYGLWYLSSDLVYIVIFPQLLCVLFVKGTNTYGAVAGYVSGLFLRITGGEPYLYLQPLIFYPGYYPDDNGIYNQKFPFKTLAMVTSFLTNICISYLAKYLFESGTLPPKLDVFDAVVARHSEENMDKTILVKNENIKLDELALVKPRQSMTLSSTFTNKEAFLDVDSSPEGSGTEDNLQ
The assay is described as follows: human choline transporter blockers, potency – cell-based, 5-point CRC, membrane potential dye, dose response (AID 504840). Format: functional.
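For IC50 Mean in this document: confirmatory dose-response retesting of NadD inhibitor hits first found in an ultra-high-throughput screen.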

T3 sequence (P65502 whole entry): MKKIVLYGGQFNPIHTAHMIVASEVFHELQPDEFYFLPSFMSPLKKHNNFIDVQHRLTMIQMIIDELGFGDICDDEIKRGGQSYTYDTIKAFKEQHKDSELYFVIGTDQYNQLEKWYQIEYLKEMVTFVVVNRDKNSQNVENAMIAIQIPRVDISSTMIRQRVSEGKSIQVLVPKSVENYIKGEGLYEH

One may read the AC50 as the midpoint of the concentration-response curve, whichever way the signal moves. For the compound `OCC(O)Cc1ccc2c(c1)OCO2` (centres undefined) [SAFROLGLYCOL], the AC50 in assay [1] was 39.8 µM (inconclusive).

For `O=C(Nc1c(-c2ccc3c(c2)OCO3)[nH][nH]c1=O)c1ccc2c(c1)OCO2`, in assay [2], the IC50 is > 129 µM (inactive).

As to `C=CCn1c(SCc2c(C(=O)OC)sc(N)c2C(=O)OC)nnc1-c1ccc(Cl)cc1`, the AC50 in assay [3] was 0.244 µM (active).

As usually defined, the GI50 is the concentration at which growth is held to half of that of the control. As for `Cc1n(CC(=O)c2ccc([N+](=O)[O-])cc2)c2c([n+]1CC(C)C)C(=O)c1ccccc1C2=O`, the figures for the GI50 in assay [4], in assay [5] and in assay [6] were 22.2 µM (inactive), < 0.01 µM (active) and 0.194 µM (active), respectively.

Turning to `Cc1ccc(N2Cc3c(ccc4ccccc34)OP2(=S)N2CCCC2)cc1` (centres undefined), the GI50 in [4] was 26.2 µM (inactive); in [5] it was > 77.6 µM (inactive); in [6], 18.6 µM (inactive).

`CO[C@H](C(=O)[C@@H](O)[C@@H](C)O)[C@@H]1Cc2cc3cc(OC4CC(OC5CC(O)C(O)C(C)O5)C(O)C(C)O4)c(C)c(O)c3c(O)c2C(=O)[C@H]1OC1CC(OC2CC(OC3CC(C)(O)C(O)C(C)O3)C(O)C(C)O2)C(O)C(C)O1` (some centres undefined): the results for the GI50 in assay [4], in assay [5] and in [6] were 1.33 µM (inactive), 0.348 µM (active) and 0.441 µM (active), respectively.

Turning to `CC1CCC2C(=O)OC(Cc3ccccc3)CN2C1c1ccc(Br)cc1` (centres undefined), the AC50 in assay [1] was 3.98 µM (inconclusive) and 5.01 µM (inconclusive).

With `O=C(c1cccc(F)c1)N1CC[C@@H]2[C@@H](CO)Nc3ccc(-c4cccc(F)c4)cc3[C@@H]21`, the AC50 in [3] is 0.222 µM (active).

As a reminder, the EC50 is the concentration at which the effect is half-maximal. In the case of `COc1ccc(OC)c(NC2=NCCCS2)c1`, the 50% effective concentration (EC50) in assay [7] and in [8] was > 350 µM (not active) in each case.

On to `O=C(Nc1cccnc1)C1CCN(S(=O)(=O)c2ccc(Cl)cc2)CC1`, for which the concentration at half-maximal activity (AC50) in assay [3] is 0.711 µM (active).

On to `COC(=O)C1=C(C)N(Cc2ccccc2)[C@]23O[C@](C(=O)OC)(C(=O)N2C1c1ccccc1)C1C(=O)N(c2ccccc2)C(=O)C13` (some centres undefined), for which the AC50 in [1] is 5.01 µM (inconclusive) and 3.98 µM (inconclusive).

As to `O=C(NC(c1ccccc1)c1ccccc1)C1CCCO1` (centres undefined), the EC50 in [7] and in [8] was > 350 µM (not active) in each case.

Take `COCC(=O)N1CC[C@@H]2[C@@H](CO)N(C)c3ccc(-c4ccc(F)cc4)cc3[C@@H]21`: in assay [3], the AC50 is 0.948 µM (active).

As for `Cc1[nH]c(=O)[nH]c(=O)c1/C=C/C(=O)NC(CO)CC(C)C` (centres undefined), the GI50 in [4] is 174 µM (inactive); in [5], > 360 µM (inactive); in [6], > 375 µM (inactive).

With `Cc1cnc(C(=O)NC2CC(C)(C)Cc3c2cnn3-c2cccc(F)c2)cn1` (centres undefined), the concentration at half-maximal activity (AC50) in [3] was 1.63 µM (active).

`NCCCCCC(CCN)SCC1OC(n2cnc3c(N)ncnc32)C(O)C1O` (centres undefined): the GI50 in assay [4] was 124 µM (inactive); in [5], 431 µM (inactive); in [6], 637 µM (inactive).

For `Cc1ccnc(NS(=O)(=O)c2ccc(NC(=O)c3cc(-c4ccc(Br)cc4)nc4ccccc34)cc2)n1`, the IC50 in assay [9] is 20.9 µM (active); in [11] it was 7.03 µM (active). Moreover, the EC50 in [10] is 68.9 µM (active); in assay [12], 5.84 µM (inconclusive); in [13] it was 7.74 µM (active).

For the compound `CN(C)C(S)=Nc1nc2ccccc2s1`, the EC50 is > 60 µM (not active) in [14] and 2.48 µM (active) in assay [16]. The IC50 in assay [15] was 3.79 µM (active).

Take `CCOc1cc(C=C2C(=O)NC(=O)NC2=O)ccc1OS(=O)(=O)c1ccccc1`: the IC50 in [17] was 12.6 µM (active).

As to `CCN(CC)CCCC(C)n1c(-c2ccccc2)nc2c(NCCOC)nc(C)nc21` (centres undefined), the AC50 in assay [1] was 20 µM (inconclusive).

Take `C[C@@H](CO)NC(=O)[C@@H]1C=C2c3cccc4[nH]cc(c34)C[C@H]2N(C)C1` [ERGONOVINE]: the AC50 in [1] was 20 µM (inconclusive).

As for `N#CC1=C(S)N=C(N)C(c2nc(-c3ccccc3)cs2)C12CCCC2` (centres undefined), the IC50 in assay [9] was 19.1 µM (active); in assay [11], 8.09 µM (active).

Consider `Cc1ccccc1CSCC1Nc2ccc(C(=O)NCCc3ccccc3)cc2NC1=O` (centres undefined), for which the IC50 was 17.2 µM (active) in assay [9] and 6.55 µM (active) in [11].

In the case of `CSCC[C@@H](NC(=O)[C@H](CC(C)C)NC(=O)C(Cc1cnc[nH]1)NC(=O)CNC(=O)[C@@H](NC(=O)[C@H](C)NC(=O)[C@H](Cc1cn(C=O)c2ccccc12)NC(=O)[C@H](CCC(N)=O)NC(=O)[C@@H](N)CC(N)=O)C(C)C)C(N)=O` (some centres undefined), the GI50 in [4], in assay [5] and in assay [6] was > 100 µM (inactive) in each case.

Regarding `O=C(COC(=O)c1ccccc1Nc1ccccc1)NCc1ccccc1Cl`, the EC50 in assay [7] and in [8] was > 350 µM (not active) throughout.

In the case of `CCCCC(Br)C(=O)Nc1ccc(S(=O)(=O)Nc2cc(C)nc(C)n2)cc1` (centres undefined), in assay [17], the IC50 was 15.9 µM (active).
